Measurements: PubChem BioAssay (NCI)
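Each compound was tested at five concentrations against cells in 96-well plates for 48 hours. TGI: concentration producing complete growth inhibition.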

Legend:
Assay in all cases: DTP human tumour cell line panel, 48 h
NCI-H522 lung = tested on: NCI-H522 lung
MCF7 breast = tested on: MCF7 breast
SN12C renal = tested on: SN12C renal
HT29 colon = tested on: HT29 colon
SW-620 colon = tested on: SW-620 colon
SF-539 CNS = tested on: SF-539 CNS
KM12 colon = tested on: KM12 colon
NCI-H23 lung = tested on: NCI-H23 lung
RPMI-8226 leukemia = tested on: RPMI-8226 leukemia
MDA-N = tested on: MDA-N
A549 NSCLC = tested on: A549 NSCLC
SK-MEL-5 melanoma = tested on: SK-MEL-5 melanoma
OVCAR-8 ovarian = tested on: OVCAR-8 ovarian
PC-3 prostate = tested on: PC-3 prostate
SF-268 CNS = tested on: SF-268 CNS
SK-OV-3 ovarian = tested on: SK-OV-3 ovarian
786-0 renal = tested on: 786-0 renal
M14 melanoma = tested on: M14 melanoma
MALME-3M melanoma = tested on: MALME-3M melanoma

In the case of `O=C(CCc1ccc(O)c(O)c1)NCCc1cc(O)cc(O)c1`, the TGI (NCI-H522 lung) was > 100 µM, the TGI (MCF7 breast) was > 100 µM and the TGI (SN12C renal) was > 100 µM. For the same compound, the TGI (HT29 colon) was > 100 µM, the TGI (SW-620 colon) was > 100 µM and the TGI (SF-539 CNS) was > 100 µM. The TGI (KM12 colon) was > 100 µM, the TGI (NCI-H23 lung) was > 100 µM and the TGI (RPMI-8226 leukemia) was > 100 µM. For the same compound, the TGI (MDA-N) was 48.1 µM, the TGI (A549 NSCLC) was > 100 µM and the TGI (SK-MEL-5 melanoma) was > 100 µM. The TGI (OVCAR-8 ovarian) was > 100 µM, the TGI (PC-3 prostate) was > 100 µM and the TGI (SF-268 CNS) was > 100 µM. For the same compound, the TGI (SK-OV-3 ovarian) was > 100 µM, the TGI (786-0 renal) was > 100 µM and the TGI (M14 melanoma) was > 100 µM.
With `Cc1nn(C(=O)c2ccc(Cl)cc2)c2c1C(c1ccccc1[N+](=O)[O-])SC(N)=N2` (centres undefined) the TGI (NCI-H522 lung) was > 10 µM, the TGI (MCF7 breast) was > 10 µM and the TGI (SN12C renal) was > 10 µM. For the same compound, the TGI (HT29 colon) was > 10 µM, the TGI (SW-620 colon) was > 10 µM and the TGI (MALME-3M melanoma) was > 10 µM. For the same compound, the TGI (SF-539 CNS) was > 10 µM, the TGI (KM12 colon) was > 10 µM and the TGI (NCI-H23 lung) was > 10 µM. For the same compound, the TGI (RPMI-8226 leukemia) was > 10 µM, the TGI (MDA-N) was > 10 µM and the TGI (A549 NSCLC) was > 10 µM. The TGI (SK-MEL-5 melanoma) was > 10 µM, the TGI (OVCAR-8 ovarian) was > 10 µM and the TGI (PC-3 prostate) was > 10 µM. For the same compound, the TGI (SF-268 CNS) was > 10 µM, the TGI (SK-OV-3 ovarian) was > 10 µM and the TGI (786-0 renal) was > 10 µM. The TGI (M14 melanoma) was > 10 µM.
With `COC(=O)C1CN=CN1CCc1ccccc1` (centres undefined) the TGI (NCI-H522 lung) was > 100 µM, the TGI (MCF7 breast) was > 100 µM and the TGI (HT29 colon) was > 100 µM. For the same compound, the TGI (SW-620 colon) was > 100 µM, the TGI (MALME-3M melanoma) was > 100 µM and the TGI (SF-539 CNS) was > 100 µM. For the same compound, the TGI (KM12 colon) was > 100 µM, the TGI (NCI-H23 lung) was > 100 µM and the TGI (RPMI-8226 leukemia) was > 100 µM. For the same compound, the TGI (MDA-N) was > 100 µM, the TGI (A549 NSCLC) was > 100 µM and the TGI (SK-MEL-5 melanoma) was > 100 µM. The TGI (OVCAR-8 ovarian) was > 100 µM, the TGI (PC-3 prostate) was > 100 µM and the TGI (SK-OV-3 ovarian) was > 100 µM. The TGI (786-0 renal) was > 100 µM and the TGI (M14 melanoma) was > 100 µM.
For `C=CCC1(OC(C)=O)C2OC(=O)C1(O)OCC2O` (centres undefined), the TGI (NCI-H522 lung) was > 100 µM, the TGI (MCF7 breast) was > 100 µM and the TGI (SN12C renal) was > 100 µM. The TGI (HT29 colon) was > 100 µM, the TGI (SW-620 colon) was > 100 µM and the TGI (MALME-3M melanoma) was > 100 µM. For the same compound, the TGI (SF-539 CNS) was > 100 µM, the TGI (KM12 colon) was > 100 µM and the TGI (NCI-H23 lung) was > 100 µM. The TGI (RPMI-8226 leukemia) was > 100 µM, the TGI (MDA-N) was > 100 µM and the TGI (A549 NSCLC) was > 100 µM. For the same compound, the TGI (SK-MEL-5 melanoma) was > 100 µM, the TGI (OVCAR-8 ovarian) was > 100 µM and the TGI (PC-3 prostate) was > 100 µM. For the same compound, the TGI (SF-268 CNS) was > 100 µM, the TGI (SK-OV-3 ovarian) was > 100 µM and the TGI (786-0 renal) was > 100 µM. The TGI (M14 melanoma) was > 100 µM.
`C/C=C\C(CC(=O)NCCC1CN(S(=O)(=O)c2ccc(C)cc2)c2ccccc21)CC(=O)OC` (centres undefined) was tested, and the TGI (NCI-H522 lung) was > 100 µM, the TGI (MCF7 breast) was > 100 µM and the TGI (HT29 colon) was > 100 µM. The TGI (SW-620 colon) was > 100 µM, the TGI (MALME-3M melanoma) was > 100 µM and the TGI (KM12 colon) was > 100 µM. For the same compound, the TGI (NCI-H23 lung) was > 100 µM, the TGI (RPMI-8226 leukemia) was > 100 µM and the TGI (MDA-N) was > 100 µM. For the same compound, the TGI (A549 NSCLC) was > 100 µM, the TGI (SK-MEL-5 melanoma) was > 100 µM and the TGI (OVCAR-8 ovarian) was > 100 µM. The TGI (PC-3 prostate) was > 100 µM, the TGI (SF-268 CNS) was > 100 µM and the TGI (SK-OV-3 ovarian) was > 100 µM. The TGI (786-0 renal) was > 100 µM and the TGI (M14 melanoma) was > 100 µM.
With `C[C@@H](c1ccccc1)N1CN(C(=O)OCc2ccccc2)C(C)(C)CC1=O` the TGI (NCI-H522 lung) was > 100 µM, the TGI (MCF7 breast) was > 100 µM and the TGI (SN12C renal) was > 100 µM. For the same compound, the TGI (HT29 colon) was > 100 µM, the TGI (SW-620 colon) was > 100 µM and the TGI (MALME-3M melanoma) was > 100 µM. For the same compound, the TGI (SF-539 CNS) was > 100 µM, the TGI (KM12 colon) was > 100 µM and the TGI (NCI-H23 lung) was > 100 µM. For the same compound, the TGI (RPMI-8226 leukemia) was > 100 µM, the TGI (MDA-N) was > 100 µM and the TGI (A549 NSCLC) was > 100 µM. The TGI (SK-MEL-5 melanoma) was > 100 µM, the TGI (OVCAR-8 ovarian) was > 100 µM and the TGI (PC-3 prostate) was > 100 µM. For the same compound, the TGI (SF-268 CNS) was > 100 µM, the TGI (SK-OV-3 ovarian) was > 100 µM and the TGI (786-0 renal) was > 100 µM. For the same compound, the TGI (M14 melanoma) was > 100 µM.
`O=c1c2nc3ccccc3c(=O)n2ncn1-c1ccccc1Cl` was tested, and the TGI (NCI-H522 lung) was > 100 µM, the TGI (MCF7 breast) was > 100 µM and the TGI (SN12C renal) was > 100 µM. For the same compound, the TGI (HT29 colon) was > 100 µM, the TGI (SW-620 colon) was > 100 µM and the TGI (MALME-3M melanoma) was > 100 µM. The TGI (SF-539 CNS) was > 100 µM, the TGI (KM12 colon) was > 100 µM and the TGI (NCI-H23 lung) was > 100 µM. For the same compound, the TGI (RPMI-8226 leukemia) was > 100 µM, the TGI (MDA-N) was > 100 µM and the TGI (A549 NSCLC) was > 100 µM. The TGI (SK-MEL-5 melanoma) was > 100 µM, the TGI (OVCAR-8 ovarian) was > 100 µM and the TGI (PC-3 prostate) was > 100 µM. For the same compound, the TGI (SF-268 CNS) was > 100 µM, the TGI (SK-OV-3 ovarian) was > 100 µM and the TGI (786-0 renal) was > 100 µM. The TGI (M14 melanoma) was > 100 µM.
With `CCn1c(SCC(=O)NNC(=S)Nc2ccc([N+](=O)[O-])cc2)nc2ccccc2c1=O` the TGI (NCI-H522 lung) was > 100 µM, the TGI (MCF7 breast) was > 100 µM and the TGI (SN12C renal) was > 100 µM. The TGI (SW-620 colon) was > 100 µM, the TGI (MALME-3M melanoma) was > 100 µM and the TGI (SF-539 CNS) was > 100 µM. The TGI (KM12 colon) was > 100 µM, the TGI (NCI-H23 lung) was > 100 µM and the TGI (RPMI-8226 leukemia) was > 100 µM. The TGI (MDA-N) was > 100 µM, the TGI (A549 NSCLC) was > 100 µM and the TGI (SK-MEL-5 melanoma) was > 100 µM. The TGI (OVCAR-8 ovarian) was > 100 µM, the TGI (PC-3 prostate) was > 100 µM and the TGI (SF-268 CNS) was > 100 µM. The TGI (SK-OV-3 ovarian) was > 100 µM, the TGI (786-0 renal) was > 100 µM and the TGI (M14 melanoma) was > 100 µM.
In the case of `O=S(=O)(O)C(=Nc1cccc(Cc2ccccc2)c1)Nc1cccc(Cc2ccccc2)c1`, the TGI (NCI-H522 lung) was 29.4 µM, the TGI (MCF7 breast) was 37.9 µM and the TGI (SN12C renal) was 37.2 µM. The TGI (HT29 colon) was 34.5 µM, the TGI (SW-620 colon) was 52.1 µM and the TGI (MALME-3M melanoma) was 32.6 µM. It also gave a TGI (SF-539 CNS) of 34.7 µM, a TGI (KM12 colon) of 31.5 µM and a TGI (NCI-H23 lung) of 31.9 µM. It also gave a TGI (RPMI-8226 leukemia) of 83.1 µM, a TGI (MDA-N) of 47.2 µM and a TGI (A549 NSCLC) of 51.9 µM. For the same compound, the TGI (SK-MEL-5 melanoma) was 32.4 µM, the TGI (OVCAR-8 ovarian) was 36.2 µM and the TGI (PC-3 prostate) was 35.1 µM. The TGI (SF-268 CNS) was 33.6 µM, the TGI (SK-OV-3 ovarian) was 36.9 µM and the TGI (786-0 renal) was 29 µM. The TGI (M14 melanoma) was 31.8 µM.
For `Cc1cccc(CP(Cc2cccc(C)c2)CC2(Cp3c4ccccc4c4ccccc43)COC2)c1`, the TGI (NCI-H522 lung) was > 85.8 µM, the TGI (MCF7 breast) was > 100 µM and the TGI (SN12C renal) was > 31.6 µM. The TGI (HT29 colon) was > 100 µM, the TGI (SW-620 colon) was > 100 µM and the TGI (MALME-3M melanoma) was > 83.3 µM. The TGI (SF-539 CNS) was > 100 µM, the TGI (KM12 colon) was > 100 µM and the TGI (NCI-H23 lung) was > 100 µM. The TGI (RPMI-8226 leukemia) was > 62.5 µM, the TGI (MDA-N) was > 100 µM and the TGI (A549 NSCLC) was > 100 µM. For the same compound, the TGI (SK-MEL-5 melanoma) was 13.4 µM, the TGI (OVCAR-8 ovarian) was > 100 µM and the TGI (PC-3 prostate) was > 100 µM. The TGI (SF-268 CNS) was > 100 µM, the TGI (SK-OV-3 ovarian) was > 100 µM and the TGI (786-0 renal) was > 31.6 µM. The TGI (M14 melanoma) was > 100 µM.
